The values that follow are results of earlier work, collected in patent US8091275B2, “pH buffered plant nutrient compositions and methods for growing plants” (AeroGrow International, priority 2004, dated 2012).

For this series, the system named is plants. To be noted: phosphorous maintained at levels adequate to stabilize pH (1 to 10 mM).

Regarding phosphorous, the toxicity to plants result was “toxic to plants”.
